# Source: the supplement of paper PMC7840683
# ± gives the standard deviation of the averaged measurements.
# Tested on: HepaRG
# Test: LDH release cytotoxicity, % of total lysis control; higher = more cytotoxic
# Conditions: 48 h
# Summary of the method: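 The CytoTox-ONE kit was used to read LDH in 50 µL spent medium as resorufin fluorescence on a Tecan Safire, with 0.1% Triton X added to total lysis wells. Beforehand, single-lot HepaRG cells on collagen I-coated 96-well plates had been exposed in duplicate for 48 h to eight-point half-log series (top 100 µM) in serum-free induction medium containing 0.5% DMSO. Percent cytotoxicity was normalized against on-plate vehicle and total lysis controls and averaged over duplicates.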
Structure (SMILES),LDH release cytotoxicity (0.03162 µM) [%],LDH release cytotoxicity (0.1 µM) [%],LDH release cytotoxicity (0.3162278 µM) [%],LDH release cytotoxicity (1 µM) [%],LDH release cytotoxicity (3.16228 µM) [%],LDH release cytotoxicity (10 µM) [%],LDH release cytotoxicity (31.6228 µM) [%],LDH release cytotoxicity (100 µM) [%],also measured
O=NN(c1ccccc1)c1ccccc1 [N-Nitrosodiphenylamine],-1.74 ± 0.78,-0.497 ± 0.4,-1.57 ± 1.3,-1.63 ± 0.68,-0.54 ± 0.41,-0.535 ± 0.14,1.3 ± 1.2,15.9 ± 4.8,
CCc1nn(C)c(C(=O)NCc2ccc(C(C)(C)C)cc2)c1Cl [Tebufenpyrad],-1.57 ± 0.17,-1.25 ± 0.71,-2.38 ± 0.55,5.74 ± 2.5,10.5 ± 1.9,15.5 ± 3.4,23.2 ± 2.7,49.6 ± 7.2,
CC(=O)O [Acetic acid],,,,,,,,,LDH release cytotoxicity (0.0317809 µM): -1.92 ± 1.2%; LDH release cytotoxicity (0.1005 µM): -2.2 ± 1.2%; LDH release cytotoxicity (0.317809 µM): -1.18 ± 0.69%; LDH release cytotoxicity (1.005 µM): -1.23 ± 1.5%; LDH release cytotoxicity (3.17809 µM): -0.0523 ± 1.1%; LDH release cytotoxicity (10.05 µM): -0.22 ± 0.88%; LDH release cytotoxicity (31.7809 µM): -0.0673 ± 1.4%; LDH release cytotoxicity (100.5 µM): 1.25 ± 1.2%
CC(C)(c1ccc(O)cc1)c1ccc(O)cc1 [Bisphenol A],-1.32 ± 0.3,-0.356 ± 1.2,-1.1 ± 0.41,-1.37 ± 0.015,-0.158 ± 0.45,0.439 ± 0.41,0.463 ± 0.27,1.47 ± 1.2,
CCCCCCC(C=O)=Cc1ccccc1 [2-(Phenylmethylene)octanal],-1.15 ± 0.14,-2.83 ± 0.43,-1.02 ± 0.77,-1.91 ± 0.42,-1.53 ± 0.26,-0.899 ± 0.63,-0.688 ± 1.8,-0.668 ± 0.88,
CCOc1nc(F)cc2nc(S(=O)(=O)Nc3c(Cl)cccc3Cl)nn12 [Diclosulam],,,,,,,,,LDH release cytotoxicity (0.01581 µM): -5.4 ± 0.3%; LDH release cytotoxicity (0.05 µM): -5.8 ± 0.38%; LDH release cytotoxicity (0.1581139 µM): -6.31 ± 0.31%; LDH release cytotoxicity (0.5 µM): -6.08 ± 0.24%; LDH release cytotoxicity (1.5811388 µM): -6.09 ± 0.25%; LDH release cytotoxicity (5 µM): -5.21 ± 0.053%; LDH release cytotoxicity (15.8114 µM): -4.75 ± 0.14%; LDH release cytotoxicity (50 µM): -3.63 ± 0.7%
"Cc1cccc(N)c1N [2,3-Diaminotoluene]",-0.0536 ± 0.59,-0.722 ± 0.31,0.216 ± 0.21,-0.468 ± 0.4,-0.351 ± 0.98,0.016 ± 0.52,-0.572 ± 0.99,0.619 ± 0.97,
CNC(=O)Oc1cccc2ccccc12 [Carbaryl],-0.447 ± 0.24,-1.82 ± 1.5,-1.28 ± 0.7,-0.688 ± 1.2,-0.561 ± 0.076,0.0525 ± 0.91,0.246 ± 1.1,0.543 ± 0.82,
CC(C)(C)OOC(C)(C)C [Di-tert-butyl peroxide],,,,,,,,,LDH release cytotoxicity (0.01581 µM): -1.21 ± 0.27%; LDH release cytotoxicity (0.05 µM): -2.14 ± 0.51%; LDH release cytotoxicity (0.1581139 µM): -1.99 ± 0.23%; LDH release cytotoxicity (0.5 µM): -2.18 ± 0.81%; LDH release cytotoxicity (1.5811388 µM): -1.46 ± 0.93%; LDH release cytotoxicity (5 µM): -1.68 ± 1.1%; LDH release cytotoxicity (15.8114 µM): -1.75 ± 0.98%; LDH release cytotoxicity (50 µM): -1.55 ± 0.28%
O=C1CN(N=Cc2ccc([N+](=O)[O-])o2)C(=O)N1 [Nitrofurantoin],-0.977 ± 0.36,-1.36 ± 0.74,-1.01 ± 0.51,-0.456 ± 1.2,-1.09 ± 0.89,-0.861 ± 0.77,-0.189 ± 0.6,2.15 ± 0.92,
"O=C(O)CCCOc1ccc(Cl)cc1Cl [2,4-Dichlorophenoxybutyric acid]",-2.25 ± 0.88,-0.951 ± 0.37,-1.77 ± 0.11,-1.33 ± 0.28,-1.43 ± 0.78,-0.351 ± 0.14,-1.14 ± 0.056,0.81 ± 0.16,
CN1CSC(=S)N(C)C1 [Dazomet],-1.04 ± 1.2,-0.753 ± 0.32,-1.34 ± 1.3,-1.86 ± 0.33,-2.37 ± 0.28,-3.44 ± 0.043,13.1 ± 2.2,78 ± 4.3,
COP(=S)(OC)Oc1nc(Cl)c(Cl)cc1Cl [Chlorpyrifos-methyl],,,,,,,,,LDH release cytotoxicity (0.0314647 µM): -1.653 ± 0.012%; LDH release cytotoxicity (0.0995 µM): -0.997 ± 0.086%; LDH release cytotoxicity (0.3146466 µM): -0.895 ± 1.2%; LDH release cytotoxicity (0.995 µM): -1.1 ± 0.81%; LDH release cytotoxicity (3.14647 µM): -1.09 ± 0.5%; LDH release cytotoxicity (9.95 µM): -0.401 ± 0.0061%; LDH release cytotoxicity (31.4647 µM): 0.323 ± 0.39%; LDH release cytotoxicity (99.5 µM): 3.84 ± 0.34%
CCOC(=O)NCCOc1ccc(Oc2ccccc2)cc1 [Fenoxycarb],-2.3 ± 0.29,-2.15 ± 0.69,-2.2 ± 0.96,-2.52 ± 0.77,-2.33 ± 0.49,-1.4 ± 0.053,-2.64 ± 0.77,16.6 ± 5.7,
C/C=C/c1ccc(OC)cc1 [(E)-Anethole],-0.814 ± 0.42,-0.865 ± 0.97,-1.3 ± 0.57,-0.855 ± 0.66,-1.25 ± 0.25,-0.44 ± 0.067,-0.316 ± 0.29,1.16 ± 1,
